Tested on: lung gene expression
Assay: RNA sequencing of lung tissue (BLM/EL244 vs BLM)
Assay type: in vivo, mouse
Conditions: BLM/EL244 vs BLM
Experimental: RNA quality was assessed using an Agilent TapeStation 4150 with the High Sensitivity […] ScreenTape (Agilent), according to the manufacturer’s protocols. For library preparation, the QuantSeq 3’mRNA-Seq Library Prep Kit (Lexogen) was used according to manufacturer’s instructions. Briefly, 500 ng of RNA from each sample was used for first-strand synthesis, followed by RNA template removal, and second-strand synthesis initiated by random primers. In-line barcodes were introduced at this step, and this was followed by magnetic bead-based purification. The resulting libraries were amplified for 15 cycles and re-purified, with quantity and quality assessed on a Qubit 4 Fluorometer with the Invitrogen Qubit dsDNA HS Assay and an Agilent Tapestation 4150 with the High Sensitivity D1000 assay kit, respectively. The quantified libraries were pooled equimolarly; 50ng of total library mix was used for Adapter Conversion PCR Amplification using the Universal Library Conversion Kit (App-A), Version: V1.0 (MGI Tech Co., Ltd.), according to the manufacturer’s instructions.
The quantity and quality of the purified adapter conversion PCR (AC-PCR) product were evaluated on a Qubit 4 Fluorometer with the Invitrogen Qubit dsDNA HS Assay and on an Agilent Tapestation 4150 with the High Sensitivity D1000 assay kit, respectively. This was followed by DNA denaturation, Single-Strand Circularisation, Enzymatic Digestion, Enzymatic Digestion Product Cleanup and Quality Control steps on 1 pmol of AC-PCR product, according to the Universal Library Conversion Kit (App-A) User Manual (Version: A3).
Finally, 60 fmol of ssCirDNA were used for DNB preparation and sequencing on a DNBSEQ-G400 platform at the BSRC Alexander Fleming Genomics Facility, using a G400 App-A FCS SE100 High-throughput Sequencing Set (MGI Tech Co., Ltd.), according to the manufacturer’s instructions.
Alignment of the FASTQ files was performed against the mouse genome build mm10 using a custom Bash script.[143] Read counting on the 3′ UTRs and differential expression analysis were conducted using the metaseqR2 bioconductor package.[144] Genes corresponding to the following biotypes were excluded: polymorphic_pseudogene, processed_transcript, pseudogene, IG_V_pseudogene, misc_RNA, IG_C_gene, IG_J_gene, IG_D_gene, IG_LV_gene, TR_V_gene, TR_V_pseudogene, TEC, and processed_pseudogene. Gene counts were normalized with DESEQ[145] through metaseqR2. Genes with more than 10 counts in at least 50% of the samples were kept for further processing. For differential expression analysis, the PANDORA algorithm[146] was used to estimate a meta p-value integrating the results from the DESEQ, DESEQ2,[147] edgeR,[148] limma,[149] NBPSeq,[150] and NOISeq[151] algorithms. All additional parameters were set to default values.
Pathway enrichment analysis was performed for the Gene Ontology Biological process (BP) and Molecular Function (MF) terms through GeneCodis 4.[152] The volcano plots, scatterplots, Venn diagrams, and dot plots were generated using the ggplot2 Bioconductor package.

[1] = lung tissue of BLM-treated mice

O=C1NC(=O)C(Cc2ccc(OCCC3CCN(C(=O)OCc4cc(Cl)cc(Cl)c4)CC3)cc2)S1 (stereo not shown) [EL244, 3,5-dichlorobenzyl 4-(2-(4-((2,4-dioxothiazolidin-5-yl)methyl)phenoxy)ethyl)piperidine-1-carboxylate]
Synm log2 nFC [1]: 0.84 | Synm nFC [1]: 1.79 | Tbc1d8 log2 nFC [1]: 1.01 | Tbc1d8 nFC [1]: 2.01 | Tbkbp1 log2 nFC [1]: 0.71 | Tbkbp1 nFC [1]: 1.64 | Tgfbr3 log2 nFC [1]: 0.83 | Tgfbr3 nFC [1]: 1.78 | Tmcc3 log2 nFC [1]: 0.74 | Tmcc3 nFC [1]: 1.67 | Tmem100 log2 nFC [1]: 0.82 | Tmem100 nFC [1]: 1.77 | Tns2 log2 nFC [1]: 0.77 | Tns2 nFC [1]: 1.70 | Tppp3 log2 nFC [1]: 0.77 | Tppp3 nFC [1]: 1.70 | Unc45b log2 nFC [1]: 0.77 | Unc45b nFC [1]: 1.70 | Vpreb3 log2 nFC [1]: 0.71 | Vpreb3 nFC [1]: 1.63 | Vwa3b log2 nFC [1]: 0.98 | Vwa3b nFC [1]: 1.97 | Zfp36 log2 nFC [1]: 0.94 | Zfp36 nFC [1]: 1.92 | Acss1 log2 nFC (lung tissue): 0.65 | Acss1 nFC (lung tissue): 1.56 | Actn1 log2 nFC (lung tissue): -0.60 | Actn1 nFC (lung tissue): 0.66 | Adam12 log2 nFC (lung tissue): -1.57 | Adam12 nFC (lung tissue): 0.34 | Adamts4 log2 nFC (lung tissue): -2.15 | Adamts4 nFC (lung tissue): 0.23 | Adamts12 log2 nFC (lung tissue): -1.47 | Adamts12 nFC (lung tissue): 0.36 | Adgre1 log2 nFC (lung tissue): -0.79 | Adgre1 nFC (lung tissue): 0.58 | Ahnak log2 nFC (lung tissue): 0.61 | Ahnak nFC (lung tissue): 1.52 | Akap12 log2 nFC (lung tissue): 0.65 | Akap12 nFC (lung tissue): 1.57 | Ankrd37 log2 nFC (lung tissue): -1.50 | Ankrd37 nFC (lung tissue): 0.35 | Anln log2 nFC (lung tissue): -2.01 | Anln nFC (lung tissue): 0.25 | Apoe log2 nFC (lung tissue): -0.84 | Apoe nFC (lung tissue): 0.56 | Arg1 log2 nFC (lung tissue): -2.32 | Arg1 nFC (lung tissue): 0.20 | Arhgef39 log2 nFC (lung tissue): -1.70 | Arhgef39 nFC (lung tissue): 0.31 | Aurka log2 nFC (lung tissue): -2.19 | Aurka nFC (lung tissue): 0.22 | Aurkb log2 nFC (lung tissue): -1.85 | Aurkb nFC (lung tissue): 0.28 | Bex3 log2 nFC (lung tissue): -0.75 | Bex3 nFC (lung tissue): 0.59 | Bhlhe40 log2 nFC (lung tissue): -0.85 | Bhlhe40 nFC (lung tissue): 0.56 | Birc5 log2 nFC (lung tissue): -2.03 | Birc5 nFC (lung tissue): 0.25 | Bmpr2 log2 nFC (lung tissue): 0.60 | Bmpr2 nFC (lung tissue): 1.52 | Brca2 log2 nFC (lung tissue): -1.64 | Brca2 nFC (lung tissue): 0.32 | Brinp1 log2 nFC (lung tissue): -1.85 | Brinp1 nFC (lung tissue): 0.28 | C1qa log2 nFC (lung tissue): -1.44 | C1qa nFC (lung tissue): 0.37 | C1qb log2 nFC (lung tissue): -1.51 | C1qb nFC (lung tissue): 0.35 | C1qc log2 nFC (lung tissue): -1.56 | C1qc nFC (lung tissue): 0.34 | C3ar1 log2 nFC (lung tissue): -1.58 | C3ar1 nFC (lung tissue): 0.33 | Capg log2 nFC (lung tissue): -0.82 | Capg nFC (lung tissue): 0.57 | Casp3 log2 nFC (lung tissue): -0.85 | Casp3 nFC (lung tissue): 0.56 | Ccdc80 log2 nFC (lung tissue): -1.64 | Ccdc80 nFC (lung tissue): 0.32 | Ccl2 log2 nFC (lung tissue): -1.43 | Ccl2 nFC (lung tissue): 0.37 | Ccl7 log2 nFC (lung tissue): -1.75 | Ccl7 nFC (lung tissue): 0.30 | Ccl8 log2 nFC (lung tissue): -1.54 | Ccl8 nFC (lung tissue): 0.34 | Ccl12 log2 nFC (lung tissue): -2.27 | Ccl12 nFC (lung tissue): 0.21 | Ccn4 log2 nFC (lung tissue): -2.20 | Ccn4 nFC (lung tissue): 0.22 | Ccna2 log2 nFC (lung tissue): -2.26 | Ccna2 nFC (lung tissue): 0.21 | Ccnb1 log2 nFC (lung tissue): -2.41 | Ccnb1 nFC (lung tissue): 0.19 | Ccnb2 log2 nFC (lung tissue): -1.68 | Ccnb2 nFC (lung tissue): 0.31 | Ccne1 log2 nFC (lung tissue): -2.04 | Ccne1 nFC (lung tissue): 0.24 | Ccnf log2 nFC (lung tissue): -2.02 | Ccnf nFC (lung tissue): 0.25 | Ccr5 log2 nFC (lung tissue): -1.76 | Ccr5 nFC (lung tissue): 0.30 | Cd63 log2 nFC (lung tissue): -0.76 | Cd63 nFC (lung tissue): 0.59 | Cd276 log2 nFC (lung tissue): -1.70 | Cd276 nFC (lung tissue): 0.31 | Cdc20 log2 nFC (lung tissue): -1.58 | Cdc20 nFC (lung tissue): 0.34 | Cdca3 log2 nFC (lung tissue): -1.83 | Cdca3 nFC (lung tissue): 0.28 | Cdca8 log2 nFC (lung tissue): -2.32 | Cdca8 nFC (lung tissue): 0.20 | Cdk1 log2 nFC (lung tissue): -1.99 | Cdk1 nFC (lung tissue): 0.25 | Cdk19 log2 nFC (lung tissue): -0.64 | Cdk19 nFC (lung tissue): 0.64 | Cdkn3 log2 nFC (lung tissue): -1.68 | Cdkn3 nFC (lung tissue): 0.31 | Cenpe log2 nFC (lung tissue): -1.70 | Cenpe nFC (lung tissue): 0.31 | Cenpf log2 nFC (lung tissue): -2.20 | Cenpf nFC (lung tissue): 0.22 | Cenph log2 nFC (lung tissue): -2.04 | Cenph nFC (lung tissue): 0.24 | Cenpk log2 nFC (lung tissue): -1.51 | Cenpk nFC (lung tissue): 0.35 | Cenpn log2 nFC (lung tissue): -1.74 | Cenpn nFC (lung tissue): 0.30 | Cenps log2 nFC (lung tissue): -1.80 | Cenps nFC (lung tissue): 0.29 | Cfp log2 nFC (lung tissue): -0.83 | Cfp nFC (lung tissue): 0.56 | Chl1 log2 nFC (lung tissue): -3.49 | Chl1 nFC (lung tissue): 0.09 | Chsy3 log2 nFC (lung tissue): -1.56 | Chsy3 nFC (lung tissue): 0.34 | Ckap2l log2 nFC (lung tissue): -2.06 | Ckap2l nFC (lung tissue): 0.24 | Ckap2 log2 nFC (lung tissue): -2.44 | Ckap2 nFC (lung tissue): 0.18 | Ckap4 log2 nFC (lung tissue): -0.63 | Ckap4 nFC (lung tissue): 0.65 | Ckb log2 nFC (lung tissue): -0.61 | Ckb nFC (lung tissue): 0.65 | Cks1b log2 nFC (lung tissue): -1.54 | Cks1b nFC (lung tissue): 0.34 | Clca3a1 log2 nFC (lung tissue): -2.06 | Clca3a1 nFC (lung tissue): 0.24 | Cldn4 log2 nFC (lung tissue): -1.99 | Cldn4 nFC (lung tissue): 0.25 | Clmp log2 nFC (lung tissue): -0.78 | Clmp nFC (lung tissue): 0.58 | Clspn log2 nFC (lung tissue): -1.79 | Clspn nFC (lung tissue): 0.29 | Clu log2 nFC (lung tissue): -0.81 | Clu nFC (lung tissue): 0.57 | Cmtm3 log2 nFC (lung tissue): -0.60 | Cmtm3 nFC (lung tissue): 0.66 | Col1a1 log2 nFC (lung tissue): -2.02 | Col1a1 nFC (lung tissue): 0.25 | Col3a1 log2 nFC (lung tissue): -1.54 | Col3a1 nFC (lung tissue): 0.34 | Col4a1 log2 nFC (lung tissue): -0.75 | Col4a1 nFC (lung tissue): 0.59 | Col4a2 log2 nFC (lung tissue): -0.64 | Col4a2 nFC (lung tissue): 0.64 | Col5a1 log2 nFC (lung tissue): -1.52 | Col5a1 nFC (lung tissue): 0.35 | Col5a2 log2 nFC (lung tissue): -1.48 | Col5a2 nFC (lung tissue): 0.36 | Col5a3 log2 nFC (lung tissue): -1.53 | Col5a3 nFC (lung tissue): 0.35 | Col6a2 log2 nFC (lung tissue): -0.67 | Col6a2 nFC (lung tissue): 0.63 | Col6a3 log2 nFC (lung tissue): -0.77 | Col6a3 nFC (lung tissue): 0.59 | Cped1 log2 nFC (lung tissue): 0.63 | Cped1 nFC (lung tissue): 1.55 | Cthrc1 log2 nFC (lung tissue): -2.00 | Cthrc1 nFC (lung tissue): 0.25 | Ctnnbip1 log2 nFC (lung tissue): -0.62 | Ctnnbip1 nFC (lung tissue): 0.65 | Ctsb log2 nFC (lung tissue): -0.75 | Ctsb nFC (lung tissue): 0.59 | Ctsh log2 nFC (lung tissue): -0.63 | Ctsh nFC (lung tissue): 0.64 | Cxcl9 log2 nFC (lung tissue): -1.62 | Cxcl9 nFC (lung tissue): 0.32 | Cxcl10 log2 nFC (lung tissue): -1.90 | Cxcl10 nFC (lung tissue): 0.27 | Cxcl12 log2 nFC (lung tissue): -0.67 | Cxcl12 nFC (lung tissue): 0.63 | Cxcl13 log2 nFC (lung tissue): -1.42 | Cxcl13 nFC (lung tissue): 0.37 | Cyth4 log2 nFC (lung tissue): -0.71 | Cyth4 nFC (lung tissue): 0.61 | Cytip log2 nFC (lung tissue): 0.63 | Cytip nFC (lung tissue): 1.54 | Ddr1 log2 nFC (lung tissue): -0.66 | Ddr1 nFC (lung tissue): 0.63 | Dnmt1 log2 nFC (lung tissue): -0.84 | Dnmt1 nFC (lung tissue): 0.56 | Dtl log2 nFC (lung tissue): -1.94 | Dtl nFC (lung tissue): 0.26 | Dtx4 log2 nFC (lung tissue): -0.70 | Dtx4 nFC (lung tissue): 0.61 | E2f8 log2 nFC (lung tissue): -1.57 | E2f8 nFC (lung tissue): 0.34 | Ect2 log2 nFC (lung tissue): -1.89 | Ect2 nFC (lung tissue): 0.27 | Efnb2 log2 nFC (lung tissue): 0.61 | Efnb2 nFC (lung tissue): 1.53 | Eln log2 nFC (lung tissue): -2.07 | Eln nFC (lung tissue): 0.24 | Emid1 log2 nFC (lung tissue): -0.78 | Emid1 nFC (lung tissue): 0.58 | Emilin1 log2 nFC (lung tissue): -0.84 | Emilin1 nFC (lung tissue): 0.56 | Emp1 log2 nFC (lung tissue): -0.70 | Emp1 nFC (lung tissue): 0.62 | Enc1 log2 nFC (lung tissue): -0.80 | Enc1 nFC (lung tissue): 0.57 | Epas1 log2 nFC (lung tissue): 0.67 | Epas1 nFC (lung tissue): 1.59 | Epb41 log2 nFC (lung tissue): 0.61 | Epb41 nFC (lung tissue): 1.52 | Espl1 log2 nFC (lung tissue): -1.71 | Espl1 nFC (lung tissue): 0.31 | Evi2a log2 nFC (lung tissue): -0.82

Reference: paper PMC13198257, “An aerosolized dual-action autotaxin inhibitor-PPARγ agonist for the treatment of pulmonary fibrosis” (Cell Reports Medicine, 2026)
